Square brackets hold non-standard residues; d marks the D form. Peptide text beside a SMILES is read from it. * marks the point of attachment. Fmoc = O=C(OCC1c2ccccc2-c2ccccc21)*; Aib = CC(C)(N)C(=O)O
Tests used:
MCF7 [1] = experiment: Cytotoxicity against Homo sapiens (human) MCF7 cells assessed as cell viability at 100 uM after 48 hr by MTT assay relative to control; assay type: functional; details: MCF7, 48 h, read-out: Activity
MCF7 [2] = experiment: Cytotoxicity against Homo sapiens (human) MCF7 cells assessed as cell viability at 25 uM after 48 hr by MTT assay relative to control; assay type: functional; details: MCF7, 48 h, read-out: Activity
[3] = target: Growth factor receptor-bound protein 2 (Homo sapiens, UniProt P62993); experiment: Binding affinity to Grb2-SH2 (unknown origin) by surface plasmon resonance analysis
MCF7 [4] = experiment: Cytotoxicity against Homo sapiens (human) MCF7 cells assessed as cell viability at 75 uM after 48 hr by MTT assay relative to control; assay type: functional; details: MCF7, 48 h, read-out: Activity
MCF7 [5] = experiment: Cytotoxicity against Homo sapiens (human) MCF7 cells assessed as cell viability at 50 uM after 48 hr by MTT assay relative to control; assay type: functional; details: MCF7, 48 h, read-out: Activity
MCF7 [6] = experiment: Cytotoxicity against Homo sapiens (human) MCF7 cells assessed as cell viability after 48 hr by MTT assay; assay type: functional, cell-based; details: MCF7, 48 h
MCF7 [7] = experiment: Cytotoxicity against Homo sapiens (human) MCF7 cells assessed as cell viability after 24 hr by MTT assay; assay type: functional, cell-based; details: MCF7, 24 h

Chain of Growth factor receptor-bound protein 2 (P62993 whole entry): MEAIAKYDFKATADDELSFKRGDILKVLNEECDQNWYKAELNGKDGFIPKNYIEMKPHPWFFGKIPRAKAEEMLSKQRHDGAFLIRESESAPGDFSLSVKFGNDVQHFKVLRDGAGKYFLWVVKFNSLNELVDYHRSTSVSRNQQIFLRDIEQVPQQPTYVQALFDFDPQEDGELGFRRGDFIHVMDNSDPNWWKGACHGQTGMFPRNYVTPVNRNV

CC(C)(NC(=O)[C@H](Cc1ccc(O)cc1)NC(=O)[C@H](CCC(=O)O)NC(=O)OCC1c2ccccc2-c2ccccc21)C(=O)N[C@@H](CC(N)=O)C(=O)O (Fmoc-EY[Aib]N-OH)
viability at 100 µM (MCF7 [1]): 95.1% | viability at 25 µM (MCF7 [2]): 104% | Kd [3]: 6.3 nM | viability at 75 µM (MCF7 [4]): 98.2% | viability at 50 µM (MCF7 [5]): 104%

CC(C)(NC(=O)[C@H](Cc1ccc(O)cc1)NC(=O)[C@H](CCC(=O)O)NC(=O)OCC1c2ccccc2-c2ccccc21)C(=O)N[C@@H](CC(N)=O)C(=O)NCC(=O)N[C@@H](CCCNC(=N)N)C(=O)N[C@@H](CCCCN)C(=O)N[C@@H](CCCCN)C(=O)N[C@@H](CCCNC(=N)N)C(=O)N[C@@H](CCCNC(=N)N)C(=O)O (Fmoc-EY[Aib]NGRKKRR-OH)
IC50 (MCF7 [6]): > 100 µM | viability at 100 µM (MCF7 [1]): 85.3% | viability at 25 µM (MCF7 [2]): 84.2% | viability at 75 µM (MCF7 [4]): 90.9% | viability at 50 µM (MCF7 [5]): 91.6%

CC[C@H](C)[C@H](NC(=O)[C@H](C)NC(=O)[C@@H](NC(=O)[C@H](Cc1ccc(O)cc1)NC(=O)[C@H](CC(N)=O)NC(=O)C(C)(C)NC(=O)[C@H](Cc1ccc(O)cc1)NC(=O)[C@H](CCC(=O)O)NC(=O)OCC1c2ccccc2-c2ccccc21)[C@@H](C)O)C(=O)N[C@@H](C)C(=O)N[C@@H](Cc1c[nH]c2ccccc12)C(=O)N[C@H](C(=O)N[C@@H](CCCCN)C(=O)N[C@@H](C)C(=O)N[C@@H](Cc1ccccc1)C(=O)N[C@H](C(=O)N[C@@H](CCCNC(=N)N)C(=O)N[C@@H](CCCCN)C(=O)N[C@@H](CC(C)C)C(=O)N[C@@H](CCCNC(=N)N)C(=O)N[C@@H](CCCCN)C(=O)O)[C@@H](C)CC)C(C)C (Fmoc-EY[Aib]NYTAIAWVKAFIRKLRK-OH)
IC50 (MCF7 [6]): > 100 µM | viability at 100 µM (MCF7 [1]): 79.8% | viability at 25 µM (MCF7 [2]): 94.1% | viability at 75 µM (MCF7 [4]): 77.3% | viability at 50 µM (MCF7 [5]): 86.5%

CC(C)(NC(=O)[C@H](Cc1ccc(O)cc1)NC(=O)[C@@H](N)CCC(=O)O)C(=O)N[C@@H](CC(N)=O)C(=O)NCC(=O)N[C@@H](CCCNC(=N)N)C(=O)N[C@@H](CCCCN)C(=O)N[C@@H](CCCCN)C(=O)N[C@@H](CCCNC(=N)N)C(=O)N[C@@H](CCCNC(=N)N)C(=O)O (H-EY[Aib]NGRKKRR-OH)
IC50 (MCF7 [6]): > 100 µM | viability at 100 µM (MCF7 [1]): 93.1% | viability at 25 µM (MCF7 [2]): 90.7% | viability at 75 µM (MCF7 [4]): 91.5% | viability at 50 µM (MCF7 [5]): 99.4%

CC[C@H](C)[C@H](NC(=O)[C@H](C)NC(=O)[C@@H](NC(=O)[C@H](Cc1ccc(O)cc1)NC(=O)[C@H](CC(N)=O)NC(=O)C(C)(C)NC(=O)[C@H](Cc1ccc(O)cc1)NC(=O)[C@@H](N)CCC(=O)O)[C@@H](C)O)C(=O)N[C@@H](C)C(=O)N[C@@H](Cc1c[nH]c2ccccc12)C(=O)N[C@H](C(=O)N[C@@H](CCCCN)C(=O)N[C@@H](C)C(=O)N[C@@H](Cc1ccccc1)C(=O)N[C@H](C(=O)N[C@@H](CCCNC(=N)N)C(=O)N[C@@H](CCCCN)C(=O)N[C@@H](CC(C)C)C(=O)N[C@@H](CCCNC(=N)N)C(=O)N[C@@H](CCCCN)C(=O)O)[C@@H](C)CC)C(C)C (H-EY[Aib]NYTAIAWVKAFIRKLRK-OH)
IC50 (MCF7 [6]): 67.1 µM | viability at 100 µM (MCF7 [1]): 19.3% | viability at 25 µM (MCF7 [2]): 95.4% | IC50 (MCF7 [7]): 87 µM | viability at 75 µM (MCF7 [4]): 40.5% | viability at 50 µM (MCF7 [5]): 80.4%

N=C(N)NCCC[C@H](NC(=O)[C@H](CCCNC(=N)N)NC(=O)[C@H](CCCCN)NC(=O)[C@H](CCCCN)NC(=O)[C@H](CCCNC(=N)N)NC(=O)CN)C(=O)O (H-GRKKRR-OH)
IC50 (MCF7 [6]): > 100 µM | viability at 100 µM (MCF7 [1]): 95.4% | viability at 25 µM (MCF7 [2]): 93.9% | viability at 75 µM (MCF7 [4]): 102% | viability at 50 µM (MCF7 [5]): 98.5%

CC(C)(NC(=O)[C@H](Cc1ccc(O)cc1)NC(=O)[C@H](CCC(=O)O)NC(=O)[C@H](CCCNC(=N)N)NC(=O)[C@H](CCCNC(=N)N)NC(=O)[C@H](CCCCN)NC(=O)[C@H](CCCCN)NC(=O)[C@H](CCCNC(=N)N)NC(=O)CN)C(=O)N[C@@H](CC(N)=O)C(=O)O (H-GRKKRREY[Aib]N-OH)
IC50 (MCF7 [6]): > 100 µM | viability at 100 µM (MCF7 [1]): 82.1% | viability at 25 µM (MCF7 [2]): 90.9% | viability at 75 µM (MCF7 [4]): 83.2% | viability at 50 µM (MCF7 [5]): 91.6%

CC[C@H](C)[C@H](NC(=O)[C@H](C)NC(=O)[C@@H](NC(=O)[C@H](Cc1ccc(O)cc1)NC(=O)[C@H](Cc1ccc(O)cc1)NC(=O)[C@H](CCC(=O)O)NC(=O)C(C)(C)NC(=O)[C@@H](N)CC(N)=O)[C@@H](C)O)C(=O)N[C@@H](C)C(=O)N[C@@H](Cc1c[nH]c2ccccc12)C(=O)N[C@H](C(=O)N[C@@H](CCCCN)C(=O)N[C@@H](C)C(=O)N[C@@H](Cc1ccccc1)C(=O)N[C@H](C(=O)N[C@@H](CCCNC(=N)N)C(=O)N[C@@H](CCCCN)C(=O)N[C@@H](CC(C)C)C(=O)N[C@@H](CCCNC(=N)N)C(=O)N[C@@H](CCCCN)C(=O)O)[C@@H](C)CC)C(C)C (H-N[Aib]EYYTAIAWVKAFIRKLRK-OH)
IC50 (MCF7 [6]): 72.4 µM | viability at 100 µM (MCF7 [1]): 40.6% | viability at 25 µM (MCF7 [2]): 85.3% | viability at 75 µM (MCF7 [4]): 56.9% | viability at 50 µM (MCF7 [5]): 78.9%

CC[C@H](C)[C@H](NC(=O)[C@H](C)NC(=O)[C@@H](N)Cc1ccc(O)cc1)C(=O)N[C@@H](C)C(=O)N[C@@H](Cc1c[nH]c2ccccc12)C(=O)N[C@H](C(=O)N[C@@H](CCCCN)C(=O)N[C@@H](C)C(=O)N[C@@H](Cc1ccccc1)C(=O)N[C@H](C(=O)N[C@@H](CCCNC(=N)N)C(=O)N[C@@H](CCCCN)C(=O)N[C@@H](CC(C)C)C(=O)N[C@@H](CCCNC(=N)N)C(=O)N[C@@H](CCCCN)C(=O)N[C@@H](CCC(=O)O)C(=O)N[C@@H](Cc1ccc(O)cc1)C(=O)NC(C)(C)C(=O)N[C@@H](CC(N)=O)C(=O)O)[C@@H](C)CC)C(C)C (H-YAIAWVKAFIRKLRKEY[Aib]N-OH)
IC50 (MCF7 [6]): > 100 µM | viability at 100 µM (MCF7 [1]): 59.9% | viability at 25 µM (MCF7 [2]): 83.8% | viability at 75 µM (MCF7 [4]): 64.5% | viability at 50 µM (MCF7 [5]): 74.4%

CC[C@H](C)[C@H](NC(=O)[C@H](C)NC(=O)[C@@H](NC(=O)[C@@H](N)Cc1ccc(O)cc1)[C@@H](C)O)C(=O)N[C@@H](C)C(=O)N[C@@H](Cc1c[nH]c2ccccc12)C(=O)N[C@H](C(=O)N[C@@H](CCCCN)C(=O)N[C@@H](C)C(=O)N[C@@H](Cc1ccccc1)C(=O)N[C@H](C(=O)N[C@@H](CCCNC(=N)N)C(=O)N[C@@H](CCCCN)C(=O)N[C@@H](CC(C)C)C(=O)N[C@@H](CCCNC(=N)N)C(=O)N[C@@H](CCCCN)C(=O)O)[C@@H](C)CC)C(C)C (H-YTAIAWVKAFIRKLRK-OH)
IC50 (MCF7 [6]): > 100 µM | viability at 100 µM (MCF7 [1]): 94.9% | viability at 25 µM (MCF7 [2]): 101% | viability at 75 µM (MCF7 [4]): 96.4% | viability at 50 µM (MCF7 [5]): 97.7%

Source: ChEMBL document CHEMBL3045965, “Design, synthesis, and evaluation of fluorescent cell-penetrating peptidic antagonists of Grb2-SH2 for targeting MCF-7 breast cancer cells” (Med Chem Res, 2013)
